Measurements: EP4775577A1, “RAS INHIBITOR” (Tyligand Bioscience (Shanghai) Limited, priority 2023, dated 2025)
Where two headings read alike, the source gives them in different places.

How the values were obtained:
[1] = system: KRAS G12V mutant NCI-H727 cells; test: Proliferation inhibition of NCI-H727 cells, 3D CellTiter-Glo assay (Method B); type: cell-based, human; conditions: Homo sapiens, NCI-H727, 120 h, 3D culture with 0.65% methylcellulose, 5 days, CTG
Procedure: NCI-H727 cells (Nanjing Kebai Biotechnology Co., Ltd., catalog number CBP60182, adherent, culture medium RPMI-1640+10%FBS (GIBCO, Cat#10091-148)) were cultured at 37°C, 5% CO2, and 95% humidity.
3D cell viability assay: Cells in the logarithmic growth phase were harvested and counted using a platelet counter. Cell viability was assessed using the trypan blue exclusion method to ensure a viability of over 90%. The 3D cell culture medium was prepared by adding 1% MC (methylcellulose, Sigma, Cat#M0512) to RPMI-1640 medium and 10% FBS. The cell concentration was adjusted to approximately 25,000 cells/mL using the 3D medium, and the methylcellulose (MC) content was set to 0.65%. Then, 80 µL of cell suspension was added to each 96-well clear, flat-bottomed, black-walled plate (Greiner, Cat# 655096). The cells in the 96-well plates were cultured overnight at 37°C and 5% CO2.
Drug preparation for IC50 assay: A 5-fold drug solution was prepared using culture medium. 20 µL of the drug solution was added to each well of a 96-well plate seeded with cells to achieve a working concentration of up to 10 µM, with a 3× dilution, and 9 concentrations. 2 replicate wells for each drug concentration were set. The cells in the drug-treated 96-well plates were cultured at 37°C and 5% CO2 for additional 5 days, then CTG assay (CellTiter-Glo® Luminescent Cell Viability Assay (Promega, Cat#G7573)) were performed.
The cell plate was equilibrated to room temperature for 30 minutes and the CTG reagent was thawed. 50 µL of CTG solution was added to each well for detection and the plate was shaken on an orbital shaker for 5 minutes to lyse the cells. The cell plate was then placed at room temperature for 25 minutes to stabilize the cryo-luminescence signal, and the cryo-luminescence value was read (EnVision® multi-plate reader, PerkinElmer#2105).
(§1) Data was analyzed using GraphPad Prism software. The dose-response-inhibition equation was used to fit the data to obtain the dose-response curve, and the IC50 value (nM) was calculated accordingly. [formula]

[2] = system: KRAS G12D mutant AGS cells; test: Proliferation inhibition of AGS cells, CellTiter-Glo assay; type: cell-based, human; conditions: Homo sapiens, AGS, 72 h, 3 days, CTG; read-out: AGS IC50/nM
Procedure: AGS cells (Nanjing Kebai Biotechnology Co., Ltd., catalog number CBP60476, adherent, culture medium (F12K Nutrient Mixture+10% FBS (GIBCO, Cat#10091-148) were cultured at 37°C, 5% CO2, and 95% humidity at a density of 1500 cells/well. Cells in the logarithmic growth phase were harvested and counted using a Countstar automated cell counter based on the classic trypan blue staining method to ensure cell viability was above 90%. The cell concentration was adjusted, and 80 µL of cell suspension was added to each 96-well clear flat-bottomed, black-walled plate (Greiner, Cat# 655090). The cells in the 96-well plates were then cultured at 37°C and 5% CO2.
Drug preparation for IC50 assay: A 5-fold drug solution was prepared using culture medium. 20 µL of the drug solution was added to each well of a 96-well plate seeded with cells to achieve a working concentration of up to 10 µM, with a 3 × dilution, and a total of 9 concentrations. 2 replicate wells for each drug concentration were set. The cells in the drug-treated 96-well plates were cultured at 37°C and 5% CO2 for additional 3 days and then CTG assay were performed.
The cell plate was equilibrated to room temperature for 30 minutes and the CTG reagent (CellTiter-Glo® Luminescent Cell Viability Assay (Promega, Cat# G7573)) was thawed. 50 µL of CTG solution was added to each well and the plate was shaken on an orbital shaker for 2 minutes to lyse the cells. The cell plate was placed at room temperature for 10 minutes to stabilize the cryo-luminescence signal and the cryo-luminescence value was read (EnVision® Multifunctional microplate reader, PerkinElmer #2105).
as §1

[3] = Method B, read-out: NCI-H727 IC50/nM

| Compound | IC50 ([1]; read-out: NCI-H727 IC50/nM, Method B) [nM] | IC50 [2] [nM] | IC50 [1, 3] [nM] |
| --- | --- | --- | --- |
| CN1CC/C(=C\F)[C@](C)(COc2nc(N3CCOC[C@@](C)(O)C3)c3cc(C(F)(F)F)c(-c4ccc(F)c5sc(N)c(C#N)c45)c(F)c3n2)C1 [Example 16] | 5 | 13.2 | – |
| [2H]C([2H])([2H])N1CC[C@H](C(F)F)[C@](C)(COc2nc(N3CCCn4nc(C(=O)N(C)C)cc4C3)c3cc(C(F)(F)F)c(-c4c(F)ccc5sc(N)c(C#N)c45)c(F)c3n2)C1 [Example 67, 5-(7-(2-Amino-3-cyano-5-fluorobenzo[b]thiophene-4-yl)-2-(((3S,4S)-4-(difluoromethyl)-3-methyl-1-(methyl-d3)piperidine-3-yl)methoxy)-8-fluoro-6-(trifluoromethyl)quinazoline-4-yl)-N,N-dimethyl-5,6,7,8-tetrahydro-4H-pyrazolo[1,5-a][1,4]diazepine-2-formamide] | – | 1.75 | 6.3 |
| [2H]C([2H])([2H])N1CC/C(=C\F)[C@](C)(COc2nc(N3CCCn4nc(C(=O)N(C)C)cc4C3)c3cc(C(F)(F)F)c(-c4c(F)ccc5sc(N)c(C#N)c45)c(F)c3n2)C1 [Example 68, 5-(7-(2-amino-3-cyano-5-fluorobenzo[b]thiophene-4-yl)-8-fluoro-2-(((S,E)-4-(fluoromethylene)-3-methyl-1-(methyl-d3)piperidine-3-yl)methoxy)-6-(trifluoromethyl)quinazoline-4-yl)-N,N-dimethyl-5,6,7,8-tetrahydro-4H-pyrazolo[1,5-a][1,4]diazepine-2-formamide] | – | 1.9 | 6.4 |
| [2H]C([2H])([2H])N1CC[C@H](C(F)F)[C@](C)(COc2nc(N3CCOC[C@@](C)(O)C3)c3cc(Cl)c(-c4cccc5sc(N)c(C#N)c45)c(F)c3n2)C1 [Example 83] | – | 38.2 | 20.2 |
| [2H]C([2H])([2H])N1CC/C(=C\F)[C@](C)(COc2nc(N3CCOC[C@@](C)(O)C3)c3cc(Cl)c(-c4cccc5sc(N)c(C#N)c45)c(F)c3n2)C1 [Example 84, 2-Amino-4-(6-chloro-8-fluoro-2-(((S,E)-4-(fluoromethylene)-3-methyl-1-(methyl-d3)piperidine-3-yl)methoxy)-4-((S)-6-hydroxy-6-methyl-1,4-oxazacycloheptane-4-yl)quinazoline-7-yl)benzo[b]thiophene-3-carbonitrile] | – | 59 | 77.7 |
| [2H]C([2H])([2H])N1CC[C@H](C(F)F)[C@](C)(COc2nc(N3CCOC[C@@](C)(O)C3)c3cc(C#N)c(-c4cccc5sc(N)c(C#N)c45)c(F)c3n2)C1 [Example 91] | – | 84.7 | 48.5 |
| [2H]C([2H])([2H])N1CC[C@H](C(F)F)[C@](C)(COc2nc(N3CCCn4nc(C(=O)N(C)C)cc4C3)c3cc([N+](=O)[O-])c(-c4cccc5sc(N)c(C#N)c45)c(F)c3n2)C1 [Example 95, 5-(7-(2-Amino-3-cyanobenzo[b]thiophene-4-yl)-2-(((3S,4S)-4-(difluoromethyl)-3-methyl-1-(methyl-d3)piperidine-3-yl)methoxy)-8-fluoro-6-nitroquinazoline-4-yl)-N,N-dimethyl-5,6,7,8-tetrahydro-4H-pyrazolo[1,5-a][1,4]diazepine-2-formamide] | – | 10.5 | 36.1 |
| [2H]C([2H])([2H])N1CC/C(=C\F)[C@](C)(COc2nc(N3CCCn4nc(C(=O)N(C)C)cc4C3)c3cc([N+](=O)[O-])c(-c4cccc5sc(N)c(C#N)c45)c(F)c3n2)C1 [Example 98] | – | 15.8 | 27.1 |
| [2H]C([2H])([2H])N1CCC(C(F)F)C(C)(COc2nc(N3CCOCC(C)(O)C3)c3cc(C(F)(F)F)c(-c4ccc(F)c5sc(N)c(C#N)c45)c(F)c3n2)C1 (centres unmarked) [Example 99] | – | 13.1 | 2.4 |
| CN1CC/C(=C\F)[C@](C)(COc2nc(N3CCCn4nc(C(=O)N(C)C)cc4C3)c3cc(C(F)F)c(-c4cccc5sc(N)c(C#N)c45)c(F)c3n2)C1 [Example 100] | – | 20 | 47.7 |
| CN1CCC(=CF)C(C)(COc2nc(N3CCC(C#N)C(O)C3)c3cc(C(F)(F)F)c(-c4cccc5sc(N)c(C#N)c45)c(F)c3n2)C1 (centres unmarked) [Example 105] | – | 338 | 26.9 |
| CN1CC/C(=C\F)[C@](C)(COc2nc(N3CCCn4nc(C(=O)N(C)C)cc4C3)c3cc(/C=C/F)c(-c4cccc5sc(N)c(C#N)c45)c(F)c3n2)C1 [Example 111] | – | 25.6 | 54.7 |
| CN1CC/C(=C\F)[C@](C)(COc2nc(N3CCCn4nc(C(=O)N(C)C)cc4C3)c3cc(/C=C\F)c(-c4cccc5sc(N)c(C#N)c45)c(F)c3n2)C1 [Example 112] | – | 9.9 | 20.2 |
| CN1CC/C(=C\F)[C@](C)(COc2nc(N3CCCN4C(=O)OCC4C3)c3cc(C(F)(F)F)c(-c4cccc5sc(N)c(C#N)c45)c(F)c3n2)C1 (some centres unmarked) [Example 113] | – | 584 | 168 |
| CNC(=O)c1cc2n(n1)CCCN(c1nc(OC[C@]3(C)CN(C)CC/C3=C\F)nc3c(F)c(-c4cccc5sc(N)c(C#N)c45)c(C(F)(F)F)cc13)C2 [Example 118] | – | 12.8 | 35.5 |
| CN1CC/C(=C\F)[C@](C)(COc2nc(N3CCCn4nc(C(=O)N(C)C)c(N)c4C3)c3cc(C(F)(F)F)c(-c4cccc5sc(N)c(C#N)c45)c(F)c3n2)C1 [Example 120] | – | 10.3 | 29.8 |
| CN1CC/C(=C\F)[C@](C)(COc2nc(N3CCCn4nc(N)c(C(=O)N(C)C)c4C3)c3cc(C(F)(F)F)c(-c4cccc5sc(N)c(C#N)c45)c(F)c3n2)C1 [Example 121] | – | 179 | 439 |
| CCc1cc2c(N3Cc4cc(C(=O)N(C)C)nn4CC[C@@H]3C)nc(OC[C@]3(C)CN(C)CC/C3=C\F)nc2c(F)c1-c1cccc2sc(N)c(C#N)c12 [Example 165A] | – | 3.2 | 3.6 |
| CCc1cc2c(N3Cc4cc(C(=O)N(C)C)nn4CC[C@@H]3C)nc(OC[C@]3(C)CN(C)CC/C3=C\F)nc2c(F)c1-c1ccc(F)c2sc(N)c(C#N)c12 [Example 166A] | – | 4.9 | 7.4 |
| CN1CC/C(=C\F)[C@](C)(COc2nc(N3CCCn4nc(C(=O)N(C)C)c(Cl)c4C3)c3cc(C4CC4)c(-c4ncc(F)c5sc(N)c(C#N)c45)c(F)c3n2)C1 [Example 167A] | – | 21.7 | 96.7 |
| C[C@H]1CCn2nc(C(=O)N(C)C)cc2CN1c1nc(OC[C@]2(C)CN(C)CC/C2=C\F)nc2c(F)c(-c3ncc(F)c4sc(N)c(C#N)c34)c(C3CC3)cc12 [Example 168A] | – | 42.1 | 85 |
| CCc1cc2c(N3CCCn4nc(C(=O)N(C)C)c(Cl)c4C3)nc(OC[C@]3(C)CN(C)CC/C3=C\F)nc2c(F)c1-c1ncc(F)c2sc(N)c(C#N)c12 [Example 169A] | – | 14.6 | 59.9 |
| CCc1cc2c(N3Cc4cc(C(=O)N(C)C)nn4CC[C@@H]3C)nc(OC[C@]3(C)CN(C)CC/C3=C\F)nc2c(F)c1-c1ncc(F)c2sc(N)c(C#N)c12 [Example 170A] | – | 33.2 | 81.9 |
| Cc1c(-c2ncc(F)c3sc(N)c(C#N)c23)c(Cl)cc2c(N3Cc4cc(C(=O)N(C)C)nn4CC[C@@H]3C)nc(OC[C@]3(C)CN(C)CC/C3=C\F)nc12 [Example 171A] | – | 4.7 | 4.1 |
| CCN1CC/C(=C\F)[C@](C)(COc2nc(N3CCCn4nc(C(=O)N(C)C)c(Cl)c4C3)c3cc(Cl)c(-c4c(F)ccc5sc(N)c(C#N)c45)c(C)c3n2)C1 [Example 180] | – | 10.6 | 11.3 |
